Assay results reported in the supplement of paper PMC10307832.

Assays:
Assay in all cases: relative viability (nuclei count vs DMSO), 5 days (fraction); higher = more cells survive
Dabrafenib + Decitabine = compound: CC(C)(C)c1nc(-c2cccc(NS(=O)(=O)c3c(F)cccc3F)c2F)c(-c2ccnc(N)n2)s1 [Dabrafenib] + Nc1ncn([C@H]2C[C@H](O)[C@@H](CO)O2)c(=O)n1 [Decitabine] (partner 2 µM)
Procedure, shortened: (§1)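 Cells from lung cancer lines were seeded into 1536-well plates and, one day later, dosed by pin tool. Treatments were either a single drug or a fixed dose of an anchor drug with five library-drug doses (not always all listed) in √10 steps. After 5 days, nuclei were stained in a one-step fixation (final 0.05% Triton X-100, 1% formaldehyde, 1 ug/ml Hoechst) and counted on 4× images, and relative viability is the treated-to-vehicle nuclei ratio, as the median of duplicate plates.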

VX-702 + Linsitinib = compound: NC(=O)c1ccc(N(C(N)=O)c2c(F)cccc2F)nc1-c1ccc(F)cc1F [VX-702] + C[C@]1(O)C[C@@H](c2nc(-c3ccc4ccc(-c5ccccc5)nc4c3)c3c(N)nccn32)C1 [Linsitinib] (partner 1 µM)
Procedure, shortened: as §1

Dabrafenib + Phenformin = compound: CC(C)(C)c1nc(-c2cccc(NS(=O)(=O)c3c(F)cccc3F)c2F)c(-c2ccnc(N)n2)s1 [Dabrafenib] + N=C(N)NC(=N)NCCc1ccccc1 [Phenformin] (partner 250 µM)
Procedure, shortened: as §1

Dabrafenib + Luminespib = compound: CC(C)(C)c1nc(-c2cccc(NS(=O)(=O)c3c(F)cccc3F)c2F)c(-c2ccnc(N)n2)s1 [Dabrafenib] + CCNC(=O)c1noc(-c2cc(C(C)C)c(O)cc2O)c1-c1ccc(CN2CCOCC2)cc1 [Luminespib] (partner 0.01 µM)
Procedure, shortened: as §1

| Cell Line | relative viability (Dabrafenib + Decitabine; first compound 0.003 µM) | relative viability (Dabrafenib + Decitabine; first compound 0.009487 µM) | relative viability (Dabrafenib + Decitabine; first compound 0.03 µM) | relative viability (Dabrafenib + Decitabine; first compound 0.09487 µM) | relative viability (Dabrafenib + Decitabine; first compound 0.3 µM) | relative viability (VX-702 + Linsitinib; first compound 0.02 µM) | relative viability (VX-702 + Linsitinib; first compound 0.2 µM) | relative viability (VX-702 + Linsitinib; first compound 0.6325 µM) | relative viability (VX-702 + Linsitinib; first compound 2 µM) | relative viability (Dabrafenib + Phenformin; first compound 0.003 µM) | relative viability (Dabrafenib + Phenformin; first compound 0.009487 µM) | relative viability (Dabrafenib + Phenformin; first compound 0.03 µM) | relative viability (Dabrafenib + Phenformin; first compound 0.09487 µM) | relative viability (Dabrafenib + Phenformin; first compound 0.3 µM) | relative viability (Dabrafenib + Luminespib; first compound 0.003 µM) | relative viability (Dabrafenib + Luminespib; first compound 0.009487 µM) | relative viability (Dabrafenib + Luminespib; first compound 0.03 µM) | relative viability (Dabrafenib + Luminespib; first compound 0.09487 µM) | relative viability (Dabrafenib + Luminespib; first compound 0.3 µM) |
| --- | --- | --- | --- | --- | --- | --- | --- | --- | --- | --- | --- | --- | --- | --- | --- | --- | --- | --- | --- |
| NCI-H460 | 0.588 | 0.486 | 0.457 | 0.463 | 0.129 | 0.879 | 0.837 | 0.825 | 0.814 | 0.523 | 0.533 | 0.52 | 0.497 | 0.46 | 0.0327 | 0.0312 | 0.0334 | 0.042 | 0.0437 |
| NCI-H520 | 0.583 | 0.515 | 0.392 | 0.459 | 0.342 | 0.962 | 0.936 | 0.915 | 0.925 | 0.431 | 0.638 | 0.289 | 0.442 | 0.612 | 0.228 | 0.213 | 0.21 | 0.262 | 0.224 |
| NCI-H596 | – | 1.1 | 0.821 | 1.02 | 0.88 | 0.996 | 1.1 | 1.02 | 1.1 | – | 1.11 | 0.65 | 0.687 | 0.748 | – | 1.03 | 0.691 | 0.885 | 0.927 |
| NCI-H647 | 0.445 | 0.366 | 0.308 | 0.358 | 0.234 | 1.21 | 0.941 | 1.18 | 1.4 | 0.129 | 0.521 | 0.418 | 0.486 | 0.458 | – | 0.282 | 0.138 | 0.19 | 0.217 |
| NCI-H650 | – | 0.324 | 0.33 | 0.303 | 0.251 | 0.927 | – | 1.07 | 1.12 | – | 0.475 | 0.393 | 0.262 | 0.35 | – | 0.832 | 0.688 | 0.56 | 0.461 |
| NCI-H661 | 0.656 | 0.57 | 0.575 | 0.573 | 0.514 | 0.523 | 0.587 | 0.5 | 0.826 | 0.256 | 0.277 | 0.268 | 0.323 | 0.306 | 0.985 | 0.927 | 0.912 | 0.758 | 0.855 |
| NCI-H727 | 0.53 | 0.8 | – | 0.877 | 0.818 | 0.516 | 0.271 | 0.259 | 0.306 | – | 0.425 | 0.515 | – | 0.595 | – | 0.339 | 0.324 | – | 0.414 |
| NCI-H838 | 0.436 | 0.466 | 0.497 | 0.428 | 0.335 | 1.01 | 0.959 | 0.977 | 1.2 | 0.564 | 0.648 | 0.451 | 0.566 | 0.625 | 0.35 | 0.311 | 0.236 | 0.292 | 0.275 |
| NCI-H1355 | – | 0.331 | 0.381 | 0.37 | 0.317 | 0.76 | 0.802 | 0.749 | 0.866 | – | 0.487 | 0.414 | 0.4 | 0.459 | – | 0.83 | 0.611 | 0.628 | 0.69 |
| NCI-H1395 | – | 0.726 | 0.738 | 0.696 | 0.66 | 0.965 | 1.28 | 0.976 | 1.47 | 0.325 | 0.462 | 0.447 | 0.403 | 0.437 | 0.663 | 0.755 | 0.661 | 0.657 | 0.567 |
| NCI-H1437 | 0.582 | 0.55 | 0.626 | 0.513 | 0.43 | 1.1 | 1.02 | 1.09 | 1.3 | 0.2 | 0.3 | 0.259 | 0.3 | 0.4 | 1.15 | 1.13 | 1.17 | 1.17 | 1.14 |
| NCI-H1651 | 0.603 | 0.679 | 0.618 | 0.512 | 0.243 | 0.876 | 1.09 | 0.967 | 1 | 0.35 | 0.352 | 0.293 | 0.353 | 0.347 | 0.65 | 0.87 | 0.789 | 0.831 | 0.608 |
| NCI-H1666 | 0.69 | 0.813 | 0.789 | 0.674 | 0.751 | 0.878 | 0.86 | 0.747 | 0.855 | 0.483 | 0.554 | 0.576 | 0.583 | 0.68 | 0.988 | 0.995 | 1.04 | 0.997 | 1.11 |
| NCI-H1734 | – | 0.456 | 0.471 | 0.488 | 0.337 | 0.977 | 0.769 | 0.794 | 0.763 | – | 0.302 | 0.388 | 0.389 | 0.362 | – | 0.175 | 0.207 | 0.203 | 0.198 |
| NCI-H1755 | 0.654 | 0.706 | 0.667 | 0.722 | 0.583 | 1.02 | 0.967 | 1.01 | 0.725 | 0.565 | 0.627 | 0.544 | 0.591 | 0.629 | 0.407 | 0.542 | 0.434 | 0.519 | 0.577 |
